In patent publication US20180354962A1, “[{[2,3-Dihydro-1H-inden-1-yl]amino}-2H,3H-furo[3,2-b]pyridin-3-yl]acetic acids, pharmaceutical compositions and uses thereof” (Boehringer Ingelheim International GmbH, priority 2015, published 2018):
Converted amounts (≈) assume the structure as drawn.

Assays:
[1] = Chemical stability (degradation kinetics) in acidic aqueous media, HPLC; type: physicochemical; settings: acetonitrile/0.1 M aqueous HCl (2:3), pH ca. 1.2, 37° C.
Experimental: Degradation kinetics is used to simulate chemical stability of compounds in the acidic part of the gastro intestinal tract. […] Their application as medical drugs to treat human diseases is therefore less restricted and troublesome. The chemical stability of the compounds of the invention at pH value of ca. 1.2 is determined as follows: Compound is dissolved in an HPLC vial either in a mixture of acetonitrile/0.1 M aqueous HCl (2:3; pH ca. 1.2) or in a mixture of acetonitrile/McIlvaine buffer pH 7.4 (2:3) to get a concentration of approximately 0.25 mg/ml. The vial was then transferred into an HPLC autosampler system and maintained at a temperature of 37° C. A first sample is taken and injected immediately into a standard HPLC system with a UV DAD detector. Further samples are injected after 2, 4, 6, 8 and 10 hours. Degradation of the compound is measured by determining the recovery rate of compound [%] for each injection using an HPLC standard gradient method. Therefore the peak area of the main peak for the first injection (AUt0) is determined and set as 100%. Peak area of the main peak is determined also for the further injections (AUtn, n=2, 4, 6, 8, 10) and expressed as fraction of […][%].

[2] = target: T1, cytochrome P450 2C8-isoenzyme (Homo sapiens, UniProt P10632); experiment: Inhibition of CYP-2C8 (amodiaquine deethylation, human liver microsomes); type: in vitro ADME; settings: human liver microsomes 0.05 mg/mL, amodiaquine 1 μM, 37° C.
T1 construct: is assayed at 37° C. with human liver microsomes; from tissue; host or cells: human liver microsomes
T1 sequence (P10632 1-490): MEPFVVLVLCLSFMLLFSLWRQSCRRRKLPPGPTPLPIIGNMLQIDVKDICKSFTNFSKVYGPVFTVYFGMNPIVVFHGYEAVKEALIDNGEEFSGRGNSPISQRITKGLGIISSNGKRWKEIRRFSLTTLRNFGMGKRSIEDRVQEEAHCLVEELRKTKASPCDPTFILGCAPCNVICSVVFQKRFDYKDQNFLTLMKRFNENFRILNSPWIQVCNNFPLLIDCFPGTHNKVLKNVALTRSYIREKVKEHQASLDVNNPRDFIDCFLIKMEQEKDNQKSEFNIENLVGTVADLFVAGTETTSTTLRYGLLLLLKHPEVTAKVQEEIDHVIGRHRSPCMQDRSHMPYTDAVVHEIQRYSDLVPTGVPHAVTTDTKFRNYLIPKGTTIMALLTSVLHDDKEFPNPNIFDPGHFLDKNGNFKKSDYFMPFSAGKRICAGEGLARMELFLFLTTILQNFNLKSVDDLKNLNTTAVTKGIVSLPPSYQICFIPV
Experimental: All assays are carried out on a robotic system in 96 well plates. The final incubation volume contains TRIS buffer (0.1 M), MgCl2 (5 mM), human liver microsomes (0.05 mg/mL), amodiaquine (1 μM) and the test compound at five different concentrations or no compound (high control) in duplicate (e.g. highest concentration 10-50 μM with subsequent serial 1:4 dilutions). Following a short preincubation period, reactions are started with the cofactor (NADPH, 1 mM) and stopped by cooling the incubation down to 8° C. and subsequently by addition of one volume of acetonitrile. An internal standard solution—the stable isotope d5-desethylamodiaquine—is added after quenching of incubations. Peak area analyte (=metabolite formed) and internal standard is determined by LC-MS/MS. The resulting peak area ratio analyte to internal standard in these incubations is compared to a control activity containing no test compound. Within each of the assay runs, the IC50 of a positive control inhibitor (Montelukast) is determined. Experimental IC50 values are calculated by least square regression according to the following equation: % control activity=(100% control activity/(1+(I/IC50)S))−B with I=inhibitor concentration; S=slope factor; B=background activity (lower plateau of the inhibition curve) If the inhibition of the reaction is already >50% at the lowest concentration of the test compound, the IC50 is assigned “<lowest concentration tested” (usually <0.4 μM). If the inhibition of the reaction is still <50% at the highest concentration of the test compound, the IC50 is assigned “>highest concentration tested” (usually >50 μM).

[3] = Aqueous solubility from DMSO stock, LC-UV; type: physicochemical; settings: aqueous buffer, kinetic from dmso stock; buffer pH 2.2, 24 h shaking, 2.5% DMSO
Experimental: The aqueous solubility of the compounds of the invention is determined by comparing the amount dissolved in buffer to the amount in an acetonitrile/water (1/1) solution. Starting from a 10 mM DMSO stock solution aliquots are diluted with acetonitrile/water (1/1) or buffer, respectively. After 24 h of shaking, the solutions are filtrated and analyzed by LC-UV. The amount dissolved in buffer is compared to the amount in the acetonitrile solution. Solubility is usually being measured from 0.001 to 0.125 mg/mL at a DMSO concentration of 2.5%. If more than 90% of the compound is dissolved in buffer, the value is marked with “>”.

[4] = target: T2, cytochrome P450 2C9-isoenzyme (Homo sapiens, UniProt P11712); experiment: Inhibition of CYP-2C9 (diclofenac hydroxylation, human liver microsomes); type: in vitro ADME; settings: human liver microsomes 0.1 mg/mL, diclofenac 10 μM, 37° C.
T2 construct: is assayed at 37° C. with human liver microsomes; from tissue; host or cells: human liver microsomes
T2 sequence (P11712 whole entry): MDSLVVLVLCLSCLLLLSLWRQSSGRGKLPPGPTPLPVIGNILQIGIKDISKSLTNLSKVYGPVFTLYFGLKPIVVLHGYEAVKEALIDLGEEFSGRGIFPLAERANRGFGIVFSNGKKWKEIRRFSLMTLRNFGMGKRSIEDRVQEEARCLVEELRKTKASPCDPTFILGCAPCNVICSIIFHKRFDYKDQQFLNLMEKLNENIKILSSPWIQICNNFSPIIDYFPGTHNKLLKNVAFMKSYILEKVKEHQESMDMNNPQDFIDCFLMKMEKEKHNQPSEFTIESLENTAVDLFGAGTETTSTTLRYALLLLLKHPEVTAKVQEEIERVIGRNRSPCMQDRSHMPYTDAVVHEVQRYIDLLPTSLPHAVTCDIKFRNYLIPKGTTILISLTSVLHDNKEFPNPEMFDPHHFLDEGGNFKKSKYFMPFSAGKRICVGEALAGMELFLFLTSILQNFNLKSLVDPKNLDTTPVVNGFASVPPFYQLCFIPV
Experimental: (§1) All assays are carried out on a robotic system in 96 well plates. The final incubation volume contains TRIS buffer (0.1 M), MgCl2 (5 mM), human liver microsomes (0.1 mg/mL), diclofenac (10 μM) and the test compound at five different concentrations or no compound (high control) in duplicate (e.g. highest concentration 10-50 μM with subsequent serial 1:4 dilutions). Following a short preincubation period, reactions are started with the cofactor (NADPH, 1 mM) and stopped by cooling the incubation down to 8° C. and subsequently by addition of one volume of acetonitrile. An internal standard solution—the stable isotope 13C6-hydroxydiclofenac—is added after quenching of incubations. Peak area analyte (=metabolite formed) and internal standard is determined by LC-MS/MS. The resulting peak area ratio analyte to internal standard in these incubations is compared to a control activity containing no test compound. Within each of the assay runs, the IC50 of a positive control inhibitor (sulfaphenazole) is determined. Experimental IC50 values are calculated by least square regression according to the following equation: % control activity=(100% control activity/(1+(I/IC50)S)))−B with I=inhibitor concentration S=slope factor B=background activity (lower plateau of the inhibition curve) If the inhibition of the reaction is already >50% at the lowest concentration of the test compound, the IC50 is assigned “<lowest concentration tested” (usually <0.4 μM). If the inhibition of the reaction is still <50% at the highest concentration of the test compound, the IC50 is assigned “>highest concentration tested” (usually >50 μM).

human GPR40 receptor = human GPR40 receptor (Homo sapiens, UniProt O14842); experiment: IP1 accumulation measurements using the IPOne assay system; type: cell-based; settings: 1321N1 cells stably expressing human GPR40; 1 h stimulation at 37° C.
Sequence of human GPR40 receptor (O14842 whole entry): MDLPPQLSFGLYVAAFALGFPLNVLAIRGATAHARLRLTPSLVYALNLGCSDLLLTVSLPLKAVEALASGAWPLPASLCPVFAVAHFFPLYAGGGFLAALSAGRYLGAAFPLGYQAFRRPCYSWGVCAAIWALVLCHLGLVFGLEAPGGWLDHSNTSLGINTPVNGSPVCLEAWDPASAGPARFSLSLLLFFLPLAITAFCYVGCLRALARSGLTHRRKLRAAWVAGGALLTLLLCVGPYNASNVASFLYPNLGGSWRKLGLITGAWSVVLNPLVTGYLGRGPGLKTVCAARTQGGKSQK
Experimental: IP1 accumulation measurements using the IPOne assay system—1321N1 cells stably expressing human GPR40 receptor (Euroscreen, Belgium) are seeded 24 h before the assay in white 384-well plates in culture medium containing 10% FCS, 1% Na-Pyruvate and 400 μg/mL G418. IP1 is assayed according to the manufacturer's description (Cisbio Bioassays, France). In brief, the assay is started by substitution of the culture medium by stimulation buffer (Hepes 10 mM, CaCl2 1 mM, MgCl2 0.5 mM, KCl 4.2 mM, NaCl 146 mM, glucose 5.5 mM and LiCl 50 mM, pH 7.4). Cells are stimulated for 1 h at 37° C., 5% CO2 by addition of the compounds that are diluted in stimulation buffer containing LiCl. Assays are stopped by adding HTRF-conjugates (IP1-d2 and Anti-IP1 cryptate Tb) and lysis buffer, provided by the manufacturer. After an incubation time of 1 h at room temperature plates are measured using an EnVision™, Perkin Elmer. The obtained fluorescence ratios at 665/615 […] are then used to calculate the pEC50 values using Assay Explorer 3.3 Software (Accelrys, Inc.) by interpolation using an IP1 reference curve and subsequent sigmoidal curve fitting allowing for a variable hill slope.

CYP2C9 = target: T3, CYP2C9 (Homo sapiens, UniProt P11712); experiment: Inhibition of CYP-2C9 (diclofenac hydroxylation, human liver microsomes); type: in vitro ADME; settings: probe diclofenac (10 μM), hydroxylation, human liver microsomes 0.1 mg/mL, 37° C.
T3 construct: from tissue; host or cells: human liver microsomes
T3 sequence (P11712 whole entry): as the sequence (P11712 whole entry) above
Experimental: as §1

SMILES	Amount of degradation after 2 h [1] [%]	IC50 [2] [µM]	solubility at 24 h [3] [µg/mL]	IC50 [4] [µM]	EC50 (human GPR40 receptor) [µM]	IC50 (CYP2C9) [µM]
Cc1cc(OCCC(C)(C)O)cc(C)c1-c1ccc(F)c2c1CC[C@H]2Oc1ccc2c(c1)OC[C@H]2CC(=O)O [4 (WO 2013/144097), reference compound]	13	6	< 1	21		
Cc1cc(-c2nnn(C)n2)cc(C)c1-c1ccc(F)c2c1CC[C@H]2Oc1ccc2c(c1)OC[C@H]2CC(=O)O [95 (WO 2013/144097), reference compound]	4	9	< 1	19		
Cc1cc(OCCC(C)(C)O)cc(C)c1-c1ccc(F)c2c1CC[C@H]2Nc1cnc2c(c1)OC[C@H]2CC(=O)O [Example 2, 2-[(3S)-6-{[(1R)-7-Fluoro-4-[4-(3-hydroxy-3-methylbutoxy)-2,6-dimethylphenyl]-2,3-dihydro-1H-inden-1-yl]amino}-2H,3H-furo[3,2-b]pyridin-3-yl]acetic acid]	0.2	32	60 (≈ 112 µM)	> 50	0.061	
CC(C)c1ccccc1-c1cccc2c1CC[C@H]2Nc1cnc2c(c1)OCC2CC(=O)O (stereo partly drawn) [Example 129, 2-(6-{[(1R)-4-[2-(Propan-2-yl)phenyl]-2,3-dihydro-1H-inden-1-yl]amino}-2H,3H-furo[3,2-b]pyridin-3-yl)acetic acid]		12	4 (≈ 9.33 µM)		0.184	50
Cc1cc(-c2nnn(C)n2)cc(C)c1-c1ccc(F)c2c1CC[C@H]2Nc1cnc2c(c1)OC[C@H]2CC(=O)O [Example 5, 2-[(3S)-6-{[(1R)-4-[2,6-Dimethyl-4-(2-methyl-2H-1,2,3,4-tetrazol-5-yl)phenyl]-7-fluoro-2,3-dihydro-1H-inden-1-yl]amino}-2H,3H-furo[3,2-b]pyridin-3-yl]acetic acid]	0.4	22	7 (≈ 13.6 µM)	48	0.026	
Cc1cc(OCCCS(C)(=O)=O)cc(C)c1-c1cccc2c1CC[C@H]2Oc1ccc2c(c1)OC[C@H]2CC(=O)O [2 (WO 2013/144098), reference compound]	94	19				
Cc1cc(OCCC(C)(C)O)cc(C)c1-c1cccc2c1CC[C@H]2Nc1cnc2c(c1)OC[C@H]2CC(=O)O [Example 4, 2-[(3S)-6-{[(1R)-4-[4-(3-Hydroxy-3-methylbutoxy)-2,6-dimethylphenyl]-2,3-dihydro-1H-inden-1-yl]amino}-2H,3H-furo[3,2-b]pyridin-3-yl]acetic acid]	<0.5	43	57 (≈ 110 µM)	> 50	0.064	
Cc1cc(-c2nnn(C)n2)cc(C)c1-c1cccc2c1CC[C@H]2Nc1cnc2c(c1)OC[C@H]2CC(=O)O [Example 3, 2-[(3S)-6-{[(1R)-4-[2,6-Dimethyl-4-(2-methyl-2H-1,2,3,4-tetrazol-5-yl)phenyl]-2,3-dihydro-1H-inden-1-yl]amino}-2H,3H-furo[3,2-b]pyridin-3-yl]acetic acid]	<0.5	29	6 (≈ 12.1 µM)	> 50	0.042	
Cc1nc(-c2cc(C)c(-c3cccc4c3CC[C@H]4Nc3cnc4c(c3)OCC4CC(=O)O)c(C)c2)no1 (stereo partly drawn) [Example 132, 2-(6-{[(1R)-4-[2,6-Dimethyl-4-(5-methyl-1,2,4-oxadiazol-3-yl)phenyl]-2,3-dihydro-1H-inden-1-yl]amino}-2H,3H-furo[3,2-b]pyridin-3-yl)acetic acid]		23	3 (≈ 6.04 µM)	> 50	0.036	
Cc1cc(OCC(C)(C)O)cc(C)c1-c1cccc2c1CC[C@H]2Nc1cnc2c(c1)OCC2CC(=O)O (stereo partly drawn) [Example 118, 2-(6-{[(1R)-4-[4-(2-Hydroxy-2-methylpropoxy)-2,6-dimethylphenyl]-2,3-dihydro-1H-inden-1-yl]amino}-2H,3H-furo[3,2-b]pyridin-3-yl)acetic acid]		> 50	66 (≈ 131 µM)	> 50	0.158	
Cc1cc(OC2CCOCC2)cc(C)c1-c1cccc2c1CC[C@H]2Nc1cnc2c(c1)OCC2CC(=O)O (stereo partly drawn) [Example 119, 2-(6-{[(1R)-4-[2,6-Dimethyl-4-(oxan-4-yloxy)phenyl]-2,3-dihydro-1H-inden-1-yl]amino}-2H,3H-furo[3,2-b]pyridin-3-yl)acetic acid]		41	16 (≈ 31.1 µM)	> 50	0.09	
